“Also recorded” adds a separate entry of the source. Like-named read-outs stand apart in the source and are kept apart here.
Columns and labels:
NMNAT = target: T1, NMNAT (Mus musculus, UniProt Q9EPA7); test: Isothermal titration calorimetry (ITC); format: binding; settings: 554 μM MS0 into 25 μM protein, 25 °C
T1 construct: His-tag; made in house; host or cells: E. coli BL21-CodonPlus (DE3)-RIL
Experimental: Thermodynamic parameters of small molecule binding to protein were determined using a MicroCal VP-ITC calorimeter. NMNAT protein solutions were ultrafiltrated in Amicon Ultra-0.5 Centrifugal Filter Unit (Merck Millipore) against buffer [20 mM Tris (pH 7.5), 20 mM NaCl], which was subsequently used to prepare a matched compound solution. […] Measurements were performed at 25 °C with spacing of 90 s between injections.
Pr otei n e xp ressi on andpur ification
Prot eins were expres se d and pur ified by our pr e vi ous methods2,3. […]
The pur ity of the pr ot ein was more tha n 90% de term ine d by SDS-PAGE and Coo massi e Blue (Tiange n, C hi na) staining and f ur the r by w est ern bl ot a na lysi s (Fig. S1).
High t hrou ghput sc reen ing (HTS)
HTS was pe rfor med usi ng our previ ously repor ted method 3. 0.5 μl st oc k of each com poun d (1 mM DMSO st oc k) was transf erred to a 96-well PCR pl ate for sc ree ni ng. […] Fina lly, 85 μl mixt ur es in each well were transf erred int o a flat-bottom 96-well black plate (Greiner) , and the fluoresc enc e (F) was measured usi ng a Teca n Inf inity M200 pl ate reader (Tecan Group Lt d.) by se tting the exc itation and emissi on wave leng th to 382 nm and 445nm respe ctive ly. […]

[1] = system: osteosarcoma cell line U2OS; test: SRB assay in U2OS; format: cell-based, human; settings: 72 hours
Experimental: (§1) Sulfor hod am ine B p rotei n st ai ning (SRB) assay
(§2) Cell pr oliferat ion was eva lua ted by sul for hod amine B pr ot ein st aini ng (SRB) assa y10-12.
(§3) Briefly, cel ls were se ede d int o 96-well pl ates, cul tur ed overni ght , and trea ted with correspond ing com poun ds for 72 h. Cells were the n fixe d with 10% trichl or oa cetic aci d and st ained with sul for hoda mine B (Sigm a). Sul for hoda mine B in the cells was di sso lved in 10 mmol/L Tris-HCl and was measured at 515 nm usi ng a multiw ell spect ropho tometer (VERSA max, Mol ecul ar Devi ces, Sunnyva le, CA). The inhi bi tion rat e on cell pr olif eratio n was cal culated for each well as (A515contr ol cells-A 515tr eated cells)/A515contr ol cells×100 % (A515:
(§4) OD va lue at 515 nm ). The averag e IC50 va lue s were de termine d by Logit method from at leas t t hr eei nde pe nde nt test s.

HepG2 cells = test: Sulforhodamine B protein staining (SRB) assay in HepG2; format: cell-based, human; settings: for IC50: Homo sapiens
Experimental: as §1, §2, §3, §4

NAMPT = settings: read-out: biochemical potency IC50; reported independently by Zheng et al. ref 19, 22; cited from earlier work
[2] = system: metastatic lung cancer cell line 95-D; test: SRB assay in 95-D; format: cell-based, human; settings: 72 hours
Experimental: as §1, §2, §3, §4

Huh7-C cells = test: CCK-8 assay in stem-like human hepatoma cell line Huh7-C; format: cell-based; settings: 60 h, read-out: CCK-8 assay in Huh7-C: IC50
Experimental: Cellc ount ing k it-8 (CCK-8) assa y
Cell vi ability was de termine d by ou r previ ous method9 usi ng the Cell Counting Kit-8 (CCK -8, […]
10 μl CCK-8 sol ution was adde d to the cul ture medium and inc ub ated at 37 °C for 1 h. Th e absor banc e at 450 nm (A450) was de tected by a pl ate reade r. Each e xperi ment w as carr ied out i n t riplic ate i n thr ee r eplic ate w ells.

[3] = system: ovarian cancer cell line A2780; test: SRB assay in A2780; format: cell-based, human; settings: A2780, 72 hours
Experimental: as §1, §2, §3, §4

T1 sequence (Q9EPA7 whole entry): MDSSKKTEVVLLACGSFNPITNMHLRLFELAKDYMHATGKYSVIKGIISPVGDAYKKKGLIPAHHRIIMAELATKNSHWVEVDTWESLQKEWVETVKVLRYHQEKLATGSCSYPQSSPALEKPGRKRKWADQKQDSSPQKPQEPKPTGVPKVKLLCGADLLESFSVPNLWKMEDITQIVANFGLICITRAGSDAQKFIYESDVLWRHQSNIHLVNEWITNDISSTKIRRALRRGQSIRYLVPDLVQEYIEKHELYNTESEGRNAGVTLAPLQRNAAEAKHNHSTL

## O=S(=O)(c1ccc(NC(=S)NCc2cccnc2)cc1)N1CCCCC1 [MS0]
NMNAT
  interaction with NMNAT by ITC: did not detect an interaction; also recorded: does not show detectable interaction
[1]
  growth inhibition (SRB, in words): potent growth inhibition
HepG2 cells; HepG2, 72 hours
  growth inhibition (SRB, in words): potent growth inhibition
HepG2 cells; HepG2, 72 h, read-out: SRB assay in HepG2: IC50, HepG2, second test, 2-fold concentration gradient, 72 hours
  IC50: ~3000 nM
HepG2 cells; HepG2, read-out: anti-proliferation IC50, initial screen, HepG2, SRB, 10-fold concentration gradient
  IC50: < 5000 nM
NAMPT
  IC50: […]
[2]
  growth inhibition (SRB, in words): potent growth inhibition
Huh7-C cells
  IC50: 722 ± 36.3 nM
[3]
  growth inhibition (SRB, in words): potent growth inhibition

Reference: PMC4603696, “Discovery and characterization of novel small-molecule inhibitors targeting nicotinamide phosphoribosyltransferase” (Scientific Reports, 2015)
